Measured values taken from US8987195B2 (priority 2012, dated 2015).

Biological target: HCV NS3/4A protease genotype 1b (Hepatitis C virus genotype 1b, UniProt P26663)
Assay: HCV NS3/4A protease time-resolved fluorescence (TRF) assay, Ki against genotype 1b
Format: biochemical
Settings: IC50 [gt-1b], NS3/4A protease TRF assay, genotype 1b enzyme 0.2 nM
Experimental: Measuring NS3/4A Inhibitory Activity (Ki) Against Genotype 1b, Against A156T Mutants and Against Genotype 3a
One assay for measuring inhibitory activity is HCV NS3 protease time-resolved fluorescence (TRF) assay as described below and in Mao et al., Anal. Biochem. 373:1-8, 2008 and International Patent Application Publication WO 2006/102087. A NS3 protease assay can be performed, for example, in a final volume of 20 μl assay buffer containing 50 mM HEPES, pH 7.5, 150 mM NaCl, 15% glycerol, 0.15% TRITON X-100, 10 mM DTT, and 0.1% PEG 8000. NS3 and NS4A protease is pre-incubated with various concentrations of inhibitors in DMSO for 30 min. The reaction is initiated by adding the TRF peptide substrate (final concentration 25 nM). NS3 mediated hydrolysis of the substrate was run for 2.5 hours at room temperature. Product fluorescence is detected using A Pherastar Plus plate reader (BMG) or Envision (Perkin Elmer Life and Analytical Sciences with excitation at 340 nm and emission at 615 nm using the appropriate delay time optimized for the europium fluorescence probe. Testing concentrations of different enzyme forms are selected to result in a signal to background ratio (S/B) of 10-30. IC50 values are derived using a standard four-parameter fit to the data. Ki values are derived from IC50 values using the following formula, IC50=Ki(1+[S]/KM), Eqn (1), where [S] is the concentration of substrate peptide in the reaction and KM is the Michaelis constant. See P. Gallinari et al., 38 BIOCHEM. 5620-32 (1999); P. Gallinari et al., 72 J. VIROL. 6758-69 (1998); M. Taliani et al., 240 ANAL. BIOCHEM. 60-67 (1996); Mao et al., Analytical Biochemistry 373: 1-8, 2008.
The assay described above was run against genotype 1b at a concentration of 0.2 nM, against A156T mutant strains at a concentration of 0.4 nM, and against genotype 3a at a concentration of 0.025 nM.

Structure (SMILES)	IC50 [pM]	IC50 (K+ salt) [pM]	also measured
COc1cc(Cl)c2nc(C(F)(F)F)c3c(c2c1)CC[C@]1(C[C@H]2C(=O)N[C@]4(C(=O)NS(=O)(=O)C5(C)CC5)C[C@H]4/C=C\CCCCC[C@H](NC(=O)OC(C)(C)C(F)(F)F)C(=O)N2C1)O3 [Example 400, 1,1,1-trifluoro-2-methylpropan-2-yl [(2R,6S,12Z,13aS,14aR,16aS)-7′-chloro-9′-methoxy-14a-{[(1-methylcyclopropyl)sulfonyl]carbamoyl}-5,16-dioxo-5′-(trifluoromethyl)-1,1′,2′,5,6,7,8,9,10,11,13a,14,14a,15,16,16a-hexadecahydrospiro[cyclopropa[e]pyrrolo[1,2-a][1,4]diazacyclopentadecine-2,3′-pyrano[2,3-c]quinolin]-6-yl]carbamate]	52	–	–
COc1cc(Cl)c2nc(C(F)(F)F)c3c(c2c1)CC[C@]1(C[C@H]2C(=O)N[C@]4(C(=O)NS(=O)(=O)C5(C)CC5)C[C@H]4/C=C\CCCCC[C@H](NC(=O)OCC(C)(C)C)C(=O)N2C1)O3 [Example 401, 2,2-dimethylpropyl [(2R,6S,12Z,13aS,14aR,16aS)-7′-chloro-9′-methoxy-14a-{[(1-methylcyclopropyl)sulfonyl]carbamoyl}-5,16-dioxo-5′-(trifluoromethyl)-1,1′,2′,5,6,7,8,9,10,11,13a,14,14a,15,16,16a-hexadecahydrospiro[cyclopropa[e]pyrrolo[1,2-a][1,4]diazacyclopentadecine-2,3′-pyrano[2,3-c]quinolin]-6-yl]carbamate]	57	–	–
COc1ccc2nc(C(F)F)c3c(c2c1)CC[C@]1(C[C@H]2C(=O)NC4(C(=O)NS(=O)(=O)C5(C)CC5)C[C@H]4/C=C\CCCCC[C@H](NC(=O)O[C@@H]4C[C@@H]5C[C@@H]5C4)C(=O)N2C1)O3 (stereo partly drawn) [Example 503, (1R,3r,5S)-bicyclo[3.1.0]hex-3-yl [(2R,6S,12Z,13aS,14aR,16aS)-5′-(difluoromethyl)-9′-methoxy-14a-{[(1-methylcyclopropyl)sulfonyl]carbamoyl}-5,16-dioxo-1,1′,2′,5,6,7,8,9,10,11,13a,14,14a,15,16,16a-hexadecahydrospiro[cyclopropa[e]pyrrolo[1,2-a][1,4]diazacyclopentadecine-2,3′-pyrano[2,3-c]quinolin]-6-yl]carbamate]	–	7	–
COc1ccc2nc(C(F)F)c3c(c2c1)CC[C@]1(C[C@H]2C(=O)N[C@]4(C(=O)NS(=O)(=O)C5(C)CC5)C[C@H]4/C=C\CCCCC[C@H](NC(=O)OCC4CCC4)C(=O)N2C1)O3 [Example 504, cyclobutylmethyl [(2R,6S,12Z,13aS,14aR,16aS)-5′-(difluoromethyl)-9′-methoxy-14a-{[(1-methylcyclopropyl)sulfonyl]carbamoyl}-5,16-dioxo-1,1′,2′,5,6,7,8,9,10,11,13a,14,14a,15,16,16a-hexadecahydrospiro[cyclopropa[e]pyrrolo[1,2-a][1,4]diazacyclopentadecine-2,3′-pyrano[2,3-c]quinolin]-6-yl]carbamate]	–	10	–
COc1ccc2nc(C(F)(F)F)c3c(c2c1)[C@](C)(O)C[C@]1(C[C@H]2C(=O)N[C@]4(C(=O)NS(=O)(=O)C5(C)CC5)C[C@H]4/C=C\CCCCC[C@H](NC(=O)OCC(C)C)C(=O)N2C1)O3 [Example 505, 2-methylpropyl [(1′R,2S,6S,12Z,13aS,14aR,16aS)-1′-hydroxy-9′-methoxy-1′-methyl-14a-{[(1-methylcyclopropyl)sulfonyl]carbamoyl}-5,16-dioxo-5′-(trifluoromethyl)-1,1′,2′,5,6,7,8,9,10,11,13a,14,14a,15,16,16a-hexadecahydrospiro[cyclopropa[e]pyrrolo[1,2-a][1,4]diazacyclopentadecine-2,3′-pyrano[2,3-c]quinolin]-6-yl]carbamate]	16	–	–
COc1ccc2nc(C(F)(F)F)c3c(c2c1)[C@](C)(O)C[C@]1(C[C@H]2C(=O)N[C@]4(C(=O)NS(=O)(=O)C5(C)CC5)C[C@H]4/C=C\CCCCC[C@H](NC(=O)OCC(C)(C)C)C(=O)N2C1)O3 [Example 506, 2,2-dimethylpropyl [(1′R,2S,6S,12Z,13aS,14aR,16aS)-1′-hydroxy-9′-methoxy-1′-methyl-14a-{[(1-methylcyclopropyl)sulfonyl]carbamoyl}-5,16-dioxo-5′-(trifluoromethyl)-1,1′,2′,5,6,7,8,9,10,11,13a,14,14a,15,16,16a-hexadecahydrospiro[cyclopropa[e]pyrrolo[1,2-a][1,4]diazacyclopentadecine-2,3′-pyrano[2,3-c]quinolin]-6-yl]carbamate]	15	–	–
COc1ccc2nc(C(F)F)c3c(c2c1)CC[C@]1(C[C@H]2C(=O)N[C@]4(C(=O)NS(=O)(=O)C5(C)CC5)C[C@H]4/C=C\CCCCC[C@H](NC(=O)OC4CCC4)C(=O)N2C1)O3 [Example 508, cyclobutyl [(2R,6S,12Z,13aS,14aR,16aS)-5′-(difluoromethyl)-9′-methoxy-14a-{[(1-methylcyclopropyl)sulfonyl]carbamoyl}-5,16-dioxo-1,1′,2′,5,6,7,8,9,10,11,13a,14,14a,15,16,16a-hexadecahydrospiro[cyclopropa[e]pyrrolo[1,2-a][1,4]diazacyclopentadecine-2,3′-pyrano[2,3-c]quinolin]-6-yl]carbamate]	–	4	–
CCc1nc2ccc(OCCN3CCOCC3)cc2c2c1O[C@]1(CC2)C[C@H]2C(=O)N[C@]3(C(=O)NS(=O)(=O)C4(C)CC4)C[C@H]3/C=C\CCCCC[C@H](NC(=O)OC3(C)CCC3)C(=O)N2C1 [Example 509, 1-methylcyclobutyl {(2R,6S,12Z,13aS,14aR,16aS)-5′-ethyl-14a-{[(1-methylcyclopropyl)sulfonyl]carbamoyl}-9′-[2-(morpholin-4-yl)ethoxy]-5,16-dioxo-1,1′,2′,5,6,7,8,9,10,11,13a,14,14a,15,16,16a-hexadecahydrospiro[cyclopropa[e]pyrrolo[1,2-a][1,4]diazacyclopentadecine-2,3′-pyrano[2,3-c]quinolin]-6-yl}carbamate]	–	6	–
CCc1nc2ccc(OCCN3CCOCC3)cc2c2c1O[C@]1(CC2)C[C@H]2C(=O)N[C@]3(C(=O)NS(=O)(=O)C4(C)CC4)C[C@H]3/C=C\CCCCC[C@H](NC(=O)OCC(C)(C)C)C(=O)N2C1 [Example 510, 2,2-dimethylpropyl {(2R,6S,12Z,13aS,14aR,16aS)-5′-ethyl-14a-{[(1-methylcyclopropyl)sulfonyl]carbamoyl}-9′-[2-(morpholin-4-yl)ethoxy]-5,16-dioxo-1,1′,2′,5,6,7,8,9,10,11,13a,14,14a,15,16,16a-hexadecahydrospiro[cyclopropa[e]pyrrolo[1,2-a][1,4]diazacyclopentadecine-2,3′-pyrano[2,3-c]quinolin]-6-yl}carbamate]	–	4	–
CCc1nc2ccc(OCCCN3CCOCC3)cc2c2c1O[C@]1(CC2)C[C@H]2C(=O)N[C@]3(C(=O)NS(=O)(=O)C4(C)CC4)C[C@H]3/C=C\CCCCC[C@H](NC(=O)OCC(C)(C)C)C(=O)N2C1 [Example 521, 2,2-dimethylpropyl {(2R,6S,12Z,13aS,14aR,16aS)-5′-ethyl-14a-{[(1-methylcyclopropyl)sulfonyl]carbamoyl}-9′-[3-(morpholin-4-yl)propoxy]-5,16-dioxo-1,1′,2′,5,6,7,8,9,10,11,13a,14,14a,15,16,16a-hexadecahydrospiro[cyclopropa[e]pyrrolo[1,2-a][1,4]diazacyclopentadecine-2,3′-pyrano[2,3-c]quinolin]-6-yl}carbamate]	–	–	IC50 (HCl salt): 4 pM
COCCCOc1ccc2nc(C(F)(F)F)c3c(c2c1)CC[C@]1(C[C@H]2C(=O)N[C@]4(C(=O)NS(=O)(=O)C5(C)CC5)C[C@H]4/C=C\CCCCC[C@H](NC(=O)OC4(C)CCC4)C(=O)N2C1)O3 [Example 523, 1-methylcyclobutyl [(2R,6S,12Z,13aS,14aR,16aS)-9′-(3-methoxypropoxy)-14a-{[(1-methylcyclopropyl)sulfonyl]carbamoyl}-5,16-dioxo-5′-(trifluoromethyl)-1,1′,2′,5,6,7,8,9,10,11,13a,14,14a,15,16,16a-hexadecahydrospiro[cyclopropa[e]pyrrolo[1,2-a][1,4]diazacyclopentadecine-2,3′-pyrano[2,3-c]quinolin]-6-yl]carbamate]	–	9	–
